# Data: patent US10988477B2 (Merck Patent GmbH, priority 2018, dated 2021)
# Molecular target: GCN2 kinase (Homo sapiens, UniProt Q9P2K8)
# Test: GCN2 enzyme inhibition assay (Transcreener ADP2 fluorescence polarization)
# Assay type: biochemical
# Details: Enzyme activity for compounds of Formula IV; Ki(app), 280 μM ATP, 25° C.
# In short: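 Run at 25 °C in 25 mM Tris-HCl pH 7.5, 50 mM NaCl, 10 mM MgCl2, 1 mM DTT with 4 nM GCN2, 280 μM ATP and 200 μM (RS)7 peptide; compound (0–8 μM final) preincubated 10 min, reaction 1 h. ADP read by antibody/tracer FP; IC50 and Ki(app) from tight-binding fit.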
# Chain of GCN2 kinase (Q9P2K8 whole entry): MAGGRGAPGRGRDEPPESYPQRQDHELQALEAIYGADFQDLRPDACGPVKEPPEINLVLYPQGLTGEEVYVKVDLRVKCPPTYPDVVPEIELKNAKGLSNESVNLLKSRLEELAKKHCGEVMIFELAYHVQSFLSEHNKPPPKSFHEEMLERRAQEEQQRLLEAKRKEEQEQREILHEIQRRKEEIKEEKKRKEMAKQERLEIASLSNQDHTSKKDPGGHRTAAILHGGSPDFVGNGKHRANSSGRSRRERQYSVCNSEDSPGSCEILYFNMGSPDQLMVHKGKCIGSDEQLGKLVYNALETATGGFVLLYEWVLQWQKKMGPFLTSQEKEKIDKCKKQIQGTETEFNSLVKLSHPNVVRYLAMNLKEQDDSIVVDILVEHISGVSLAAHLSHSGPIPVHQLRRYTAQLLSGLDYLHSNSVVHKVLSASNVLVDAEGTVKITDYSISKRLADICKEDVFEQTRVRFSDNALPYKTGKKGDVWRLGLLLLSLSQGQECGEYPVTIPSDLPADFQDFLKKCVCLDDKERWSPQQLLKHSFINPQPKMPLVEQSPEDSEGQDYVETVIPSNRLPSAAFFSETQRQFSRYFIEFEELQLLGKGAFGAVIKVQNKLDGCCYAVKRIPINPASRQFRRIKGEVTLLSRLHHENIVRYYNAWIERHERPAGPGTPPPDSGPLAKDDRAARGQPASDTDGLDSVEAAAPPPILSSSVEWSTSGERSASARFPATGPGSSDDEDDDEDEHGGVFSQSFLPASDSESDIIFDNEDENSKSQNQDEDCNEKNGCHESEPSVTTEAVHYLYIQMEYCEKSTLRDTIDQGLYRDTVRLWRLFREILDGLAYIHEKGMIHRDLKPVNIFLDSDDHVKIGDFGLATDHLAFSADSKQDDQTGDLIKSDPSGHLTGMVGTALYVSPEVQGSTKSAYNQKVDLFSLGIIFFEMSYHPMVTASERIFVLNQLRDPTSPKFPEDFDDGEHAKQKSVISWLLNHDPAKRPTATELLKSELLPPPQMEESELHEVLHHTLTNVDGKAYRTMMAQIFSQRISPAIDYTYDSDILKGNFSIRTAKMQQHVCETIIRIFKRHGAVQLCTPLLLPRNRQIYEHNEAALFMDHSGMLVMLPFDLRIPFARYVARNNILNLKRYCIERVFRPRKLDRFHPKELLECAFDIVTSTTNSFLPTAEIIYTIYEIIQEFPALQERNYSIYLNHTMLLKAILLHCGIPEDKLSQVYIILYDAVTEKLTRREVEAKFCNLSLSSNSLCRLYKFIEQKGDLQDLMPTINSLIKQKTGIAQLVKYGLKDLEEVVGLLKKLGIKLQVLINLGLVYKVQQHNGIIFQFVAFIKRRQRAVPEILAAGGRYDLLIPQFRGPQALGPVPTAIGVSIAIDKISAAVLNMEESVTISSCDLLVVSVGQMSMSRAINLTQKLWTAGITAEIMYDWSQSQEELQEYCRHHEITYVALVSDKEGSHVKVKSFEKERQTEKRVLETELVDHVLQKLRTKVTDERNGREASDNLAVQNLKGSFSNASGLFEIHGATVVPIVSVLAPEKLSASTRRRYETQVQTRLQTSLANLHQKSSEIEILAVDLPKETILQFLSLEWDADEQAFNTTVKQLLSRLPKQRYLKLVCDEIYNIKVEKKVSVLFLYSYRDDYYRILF
row,SMILES,Ki [nM]
1,"NC(=O)c1cn2c(-c3nccc(N4CCN5C(=O)CCCC5C4)n3)cnc2cn1 (single isomer, unassigned) [IV-274, 3-(4-(6-Oxooctahydro-2H-pyrido[1,2-a]pyrazin-2-yl)pyrimidin-2-yl)imidazo[1,2-a]pyrazine-6-carboxamide]",10 to 100
2,"FC(F)(F)c1cn2c(-c3nccc(N4CCCC4)n3)cnc2cn1 [IV-428, 3-(4-(Pyrrolidin-1-yl)pyrimidin-2-yl)-6-(trifluoromethyl)imidazo[1,2-a]pyrazine]",100 to 1000
3,"NC(=O)c1cn2c(-c3nccc(N4CCC5(CCCO5)CC4)n3)cnc2cn1 [IV-269, 3-(4-(1-Oxa-8-azaspiro[4.5]decan-8-yl)pyrimidin-2-yl)imidazo[1,2-a]pyrazine-6-carboxamide]",10 to 100
4,"OCCn1cc(-c2ccnc(-c3cnc4cnc(C(F)(F)F)cn34)n2)cn1 [IV-431, 2-(4-(2-(6-(Trifluoromethyl)imidazo[1,2-a]pyrazin-3-yl)pyrimidin-4-yl)-1H-pyrazol-1-yl)ethan-1-ol]",100 to 1000
5,"CC1(C(N)=O)CCN(c2ccnc(-c3cnc4cnc(C(F)(F)F)cn34)n2)C1 (centres unmarked) [IV-581, 3-Methyl-1-(2-(6-(trifluoromethyl)imidazo[1,2-a]pyrazin-3-yl)pyrimidin-4-yl)pyrrolidine-3-carboxamide]",100 to 1000
6,"CC1CN(c2ccnc(-c3cnc4cnc(C(F)(F)F)cn34)n2)CC1C (centres unmarked) [IV-555, 3-(4-(3,4-Dimethylpyrrolidin-1-yl)pyrimidin-2-yl)-6-(trifluoromethyl)imidazo[1,2-a]pyrazine]",100 to 1000
7,"O=C1NC[C@@H]2CCN(c3ccnc(-c4cnc5cnc(C(F)(F)F)cn45)n3)C[C@H]12 [IV-515, (3aR,7aR)-5-(2-(6-(Trifluoromethyl)imidazo[1,2-a]pyrazin-3-yl)pyrimidin-4-yl)octahydro-3H-pyrrolo[3,4-a]pyridin-3-one]",100 to 1000
8,"CC1CN(c2ccnc(-c3cnc4cnc(C#N)cn34)n2)C(C)C(c2cn[nH]c2)N1 (single isomer, unassigned) [IV-314, 3-(4-(2,5-Dimethyl-3-(1H-pyrazol-4-yl)piperazin-1-yl)pyrimidin-2-yl)imidazo[1,2-a]pyrazine-6-carbonitrile]",< 10
9,"CC1CC(C(N)=O)C(C)N(c2ccnc(-c3cnc4cnc(C(F)(F)F)cn34)n2)C1 (single isomer, unassigned) [IV-481, 2,5-Dimethyl-1-(2-(6-(trifluoromethyl)imidazo[1,2-a]pyrazin-3-yl)pyrimidin-4-yl)piperidine-3-carboxamide]",10 to 100
10,"CC1CC(C(N)=O)C(C)N(c2ccnc(-c3cnc4cnc(C(F)(F)F)cn34)n2)C1 (single isomer, unassigned) [IV-500, 2,5-Dimethyl-1-(2-(6-(trifluoromethyl)imidazo[1,2-a]pyrazin-3-yl)pyrimidin-4-yl)piperidine-3-carboxamide]",100 to 1000
11,O=C(N[C@H]1CCCN(c2ccnc(-c3cnc4cnc(C(F)(F)F)cn34)n2)C1)c1ccn(C2CC2)n1 [IV-742],> 1000
12,"CC(=O)N1CCN(c2ccnc(-c3cnc4cnc(C#N)cn34)n2)CC1 [IV-31, 3-(4-(4-Acetylpiperazin-1-yl)pyrimidin-2-yl)imidazo[1,2-a]pyrazine-6-carbonitrile]",100 to 1000
13,O=C(N[C@H]1CCCN(c2ccnc(-c3cnc4cnc(C(F)(F)F)cn34)n2)C1)c1ccc(F)cc1F [IV-744],> 1000
14,FC(F)(F)c1cn2c(-c3nccc(N4CCCC(c5ncc[nH]5)C4)n3)cnc2cn1 (centres unmarked) [IV-708],10 to 100
15,FC(F)(F)c1cn2c(-c3nccc(N4CCC[C@@H](c5c[nH]cn5)C4)n3)cnc2cn1 [IV-706],< 10
16,"CNC(=O)c1cn2c(-c3cccc(N4CCN(C(C)=O)CC4)n3)cnc2cn1 [IV-260, 3-(6-(4-Acetylpiperazin-1-yl)pyridin-2-yl)-N-methylimidazo[1,2-a]pyrazine-6-carboxamide]",10 to 100
17,"FC(F)(F)c1cn2c(-c3nccc(N4CCN5CCOCC5C4)n3)cnc2cn1 (centres unmarked) [IV-504, 8-(2-(6-(Trifluoromethyl)imidazo[1,2-a]pyrazin-3-yl)pyrimidin-4-yl)octahydropyrazino[2,1-a][1,4]oxazine]",100 to 1000
18,"CN1C(=O)CO[C@H]2CN(c3ccnc(-c4cnc5cnc(C(F)(F)F)cn45)n3)C[C@@H]21 (single isomer, unassigned) [IV-551]",100 to 1000
19,"Cn1nccc1C1CCCN(c2ccnc(-c3cnc4cnc(C(F)(F)F)cn34)n2)C1 (centres unmarked) [IV-655, 3-(4-(3-(1-Methyl-1H-pyrazol-5-yl)piperidin-1-yl)pyrimidin-2-yl)-6-(trifluoromethyl)imidazo[1,2-a]pyrazine]",100 to 1000
20,"NC(=O)c1cn2c(-c3nccc(N4CC(=O)N5CCCC5C4)n3)cnc2cn1 (centres unmarked) [IV-268, 3-(4-(4-Oxohexahydropyrrolo[1,2-a]pyrazin-2(1H)-yl)pyrimidin-2-yl)imidazo[1,2-a]pyrazine-6-carboxamide]",100 to 1000
21,NCC1CCN(c2ccnc(-c3cnc4cnc(C(F)(F)F)cn34)n2)CC1 [IV-487],100 to 1000
22,"CC1NC(c2cn[nH]c2)C(C)N(c2ccnc(-c3cnc4cnc(C(F)(F)F)cn34)n2)C1C (single isomer, unassigned) [IV-337, 6-(Trifluoromethyl)-3-(4-(2,3,6-trimethyl-5-(1H-pyrazol-4-yl)piperazin-1-yl)pyrimidin-2-yl)imidazo[1,2-a]pyrazine]",< 10
23,CS(C)(=O)=NCC(=O)N[C@H]1CCCN(c2ccnc(-c3cnc4cnc(C(F)(F)F)cn34)n2)C1 [IV-747],> 1000
24,"NC(=O)c1cn2c(-c3nccc(N4CCCC(N)C4)n3)cnc2cn1 (centres unmarked) [IV-256, 3-(4-(3-Aminopiperidin-1-yl)pyrimidin-2-yl)imidazo[1,2-a]pyrazine-6-carboxamide]",100 to 1000
25,"FC(F)(F)c1cn2c(-c3nccc(-n4ccc(C5CCCNC5)n4)n3)cnc2cn1 (centres unmarked) [IV-634, 3-(4-(3-(Piperidin-3-yl)-1H-pyrazol-1-yl)pyrimidin-2-yl)-6-(trifluoromethyl)imidazo[1,2-a]pyrazine]",100 to 1000
26,"FC(F)(F)c1cn2c(-c3ccnc(N4CCOC(c5cn[nH]c5)C4)n3)cnc2cn1 (single isomer, unassigned) [IV-185, 2-(1H-Pyrazol-4-yl)-4-(4-(6-(trifluoromethyl)imidazo[1,2-a]pyrazin-3-yl)pyrimidin-2-yl)morpholine]",10 to 100
27,"O=C1CCCN1CC1CCN(c2ccnc(-c3cnc4cnc(C(F)(F)F)cn34)n2)C1 (centres unmarked) [IV-557, 1-((1-(2-(6-(Trifluoromethyl)imidazo[1,2-a]pyrazin-3-yl)pyrimidin-4-yl)pyrrolidin-3-yl)methyl)pyrrolidin-2-one]",100 to 1000
28,"FC(F)(F)c1cn2c(-c3nccc(N4CCC5(CC4)COC5)n3)cnc2cn1 [IV-511, 7-(2-(6-(Trifluoromethyl)imidazo[1,2-a]pyrazin-3-yl)pyrimidin-4-yl)-2-oxa-7-azaspiro[3.5]nonane]",100 to 1000

# Same assay, conditions: compounds of Formula II; 280 μM ATP, 4 nM GCN2 kinase
row,SMILES,Ki [nM]
1,Cc1noc([C@@H]2CN(c3cc(-c4cnc5ccc(C(F)(F)F)nn45)ccn3)C[C@H](C)O2)n1 [II-745],10 to 1000
2,"CC1CCC(N=S(C)(C)=O)CN1c1cc(-c2cnc3ccc(C(F)F)nn23)ncn1 (centres unmarked) [II-697, [1-[6-[6-(Difluoromethyl)imidazo[1,2-b]pyridazin-3-yl]pyrimidin-4-yl]-6-methyl-3-piperidyl]imino-dimethyl-λ^6-sulfanone]",> 1000
3,CC(=O)N1CCC(c2cc(-c3cnc4ccc(C(F)F)nn34)ncn2)CC1 [II-539],10 to 1000
4,"CS(=O)(=O)NCC1CN(c2cc(-c3cnc4ccc(C(F)F)nn34)ncn2)CCC12CC2 (centres unmarked) [II-566, N-((6-(6-(6-(Difluoromethyl)imidazo[1,2-b]pyridazin-3-yl)pyrimidin-4-yl)-6-azaspiro[2.5]octan-4-yl)methyl)methanesulfonamide]",< 10
5,"CCS(C)(=O)=NC1CC(C)CN(c2cc(-c3cnc4ccc(C(F)F)nn34)ncn2)C1 (single isomer, unassigned) [II-642, ((1-(6-(6-(Difluoromethyl)imidazo[1,2-b]pyridazin-3-yl)pyrimidin-4-yl)-5-methylpiperidin-3-yl)imino)(ethyl)(methyl)-λ^6-sulfanone]",< 10
6,"CC1C(CO)N(C(C)(C)C)CCN1c1cc(-c2cnc3ccc(C(F)F)nn23)ncn1 (centres unmarked) [II-43, (1-(tert-Butyl)-4-(6-(6-(difluoromethyl)imidazo[1,2-b]pyridazin-3-yl)pyrimidin-4-yl)-3-methylpiperazin-2-yl)methanol]",> 1000
7,"CC(C)(O)C1CCCN(c2cc(-c3cnc4ccc(C(F)F)nn34)ncn2)C1 (single isomer, unassigned) [II-613, 2-(1-(6-(6-(Difluoromethyl)imidazo[1,2-b]pyridazin-3-yl)pyrimidin-4-yl)piperidin-3-yl)propan-2-ol]",10 to 1000
8,"CC1C(CN=S(C)(C)=O)CCCN1c1cc(-c2cnc3ccc(C(F)F)nn23)ncn1 (centres unmarked) [II-583, (((1-(6-(6-(Difluoromethyl)imidazo[1,2-b]pyridazin-3-yl)pyrimidin-4-yl)-2-methylpiperidin-3-yl)methyl)imino)dimethyl-λ^6-sulfanone]",> 1000
9,"CS(C)(=O)=NC1CC(C(F)(F)F)CN(c2cc(-c3cnc4ccc(C(F)F)nn34)ncn2)C1 (centres unmarked) [II-654, ((1-(6-(6-(Difluoromethyl)imidazo[1,2-b]pyridazin-3-yl)pyrimidin-4-yl)-5-(trifluoromethyl)piperidin-3-yl)imino)dimethyl-λ^6-sulfanone]",10 to 1000

# Same assay, conditions: compounds of Formula IV; 280 μM ATP, 4 nM GCN2 kinase
row,SMILES,IC50 [nM]
1,"C[C@H]1[C@@H](c2cn[nH]c2)N(C(=O)C2CC2)[C@@H](C)CN1c1ccnc(-c2cnc3cnc(C(F)(F)F)cn23)n1 [IV-778, cyclopropyl((2R,3S,6S)-3,6-dimethyl-2-(1H-pyrazol-4-yl)-4-(2-(6-(trifluoromethyl)imidazo[1,2-a]pyrazin-3-yl)pyrimidin-4-yl)piperazin-1-yl)methanone]",10 to 1000
